Assay results as given in patent EP0565377B1, “Therapeutic agents for use in the treatment of Parkinson's Disease” (Kyowa Hakko Kogyo Co., Ltd., priority 1992, dated 1993).

Tests used:
dd-strain male mice = test: Acute toxicity test (minimum lethal dose, oral); format: in vivo; conditions: oral administration, mortality seven days after administration, three mice per group
Experimental: Test compounds were orally administered to groups of dd-strain male mice weighing 20±1 g, each group consisting of three mice. Seven days after the administration, minimum lethal dose (MLD) of each compound was determined by observing the mortality.

[1] = test system: Haloperidol-Induced Catalepsy; test: Effect on haloperidol-induced catalepsy; format: in vivo, male ddY mice; conditions: Table 4-1, test compound 10 mg/kg orally
Experimental: The experiment was performed by using several groups of 5-weeks-old male ddY mice (weighing 22 to 24 g, Japan SLC), each group consisting of 5 mice. Haloperidol (Janssen Pharmaceutica) suspended in 0.3% CMC was intraperitoneally administered to each mouse at a dose of 1.0 mg/kg. Test compounds were suspended in 0.3% CMC or in injectable distilled water (Otsuka Pharmaceutical Co., Ltd.) containing Tween 80. L-DOPA (Kyowa Hakko Kogyo Co., Ltd.) and benserazide hydrochloride (Kyowa Hakko Kogyo Co., Ltd.) were suspended in 0.3% CMC. One hour after the haloperidol administration, the test compound suspensions and the control suspension [0.3% CMC or injectable distilled water (Otsuka Pharmaceutical Co., Ltd.) containing Tween 80] containing no test compound were orally administered to separate groups of the mice (0.1 ml per 10 g of body weight). One hour after the administration of the test compound, the forelimbs of each mouse and subsequently the hindlimbs of the same mouse were placed on a 4.5 cm-high, 1.0 cm-wide bar and catalepsy was estimated. All of the test compounds were orally administered at a dose of 10 mg/kg, and L-DOPA (100 mg/kg) and benserazide (25 mg/kg) were intraperitoneally administered together as a control experiment. The catalepsy score and the standard of judgment are shown below.
The effect of the compounds was evaluated by the total of the catalepsy scores of five mice in each group (25 points at the full). The groups wherein the total score was not more than 20 points were estimated to be effective. The number of the animals showing remission against catalepsy is the number of the mice for which the catalepsy score was not more than 4 points.

Row | SMILES | MLD (dd-strain male mice) | other results
1 | CCCn1c(=O)c2c(nc(/C=C/c3cccc(Cl)c3)n2C)n(CCC)c1=O [Compound 39, (E)-8-(3-chlorostyryl)-7-methyl-1,3-dipropylxanthine] | > 100 mg/kg | 
2 | CCCn1c(=O)c2nc(/C=C/c3cc(OC)cc(OC)c3)[nH]c2n(CCC)c1=O [Compound 32, (E)-8-(3,5-dimethoxystyryl)-1,3-dipropylxanthine] | > 100 mg/kg | 
3 | CCCn1c(=O)c2nc(/C=C/c3cccc(Cl)c3)[nH]c2n(CCC)c1=O [Compound 38, (E)-8-(3-chlorostyryl)-1,3-dipropylxanthine] | > 100 mg/kg | 
4 | CCCn1c(=O)c2c(nc(/C=C/c3ccc4c(c3)OCCO4)n2C)n(CCC)c1=O [Compound 17, (E)-8-[2-(1,4-benzodioxan-6-yl)vinyl]-7-methyl-1,3-dipropylxanthine] | > 300 mg/kg | 
5 | CCCn1c(=O)c2c(nc(/C=C/c3ccc(OCC)c(OCC)c3)n2C)n(CCC)c1=O [Compound 54, (E)-8-(3,4-diethoxystyryl)-7-methyl-1,3-dipropylxanthine] | > 100 mg/kg | 
6 | CCCn1c(=O)c2c(nc(/C=C/c3ccc(OC)c(Br)c3)n2C)n(CCC)c1=O [Compound 56, (E)-8-(3-bromo-4-methoxystyryl)-7-methyl-1,3-dipropylxanthine] | > 100 mg/kg | 
7 | CCCn1c(=O)c2[nH]c(/C=C/c3ccccc3Cl)nc2n(CCC)c1=O [Compound 40, (E)-8-(2-chlorostyryl)-1,3-dipropylxanthine] | > 100 mg/kg | 
8 | CCCn1c(=O)c2[nH]c(/C=C/c3cc(C)c(OC)cc3C)nc2n(CCC)c1=O [Compound 44, (E)-8-(4-methoxy-2,5-dimethylstyryl)-1,3-dipropylxanthine] | > 300 mg/kg | 
9 | CCCCOc1ccc(/C=C/c2nc3c([nH]2)c(=O)n(CCC)c(=O)n3CCC)cc1 [Compound 51, (E)-8-(4-butoxystyryl)-1,3-dipropylxanthine] | > 100 mg/kg | 
10 | CCCn1c(=O)c2nc(/C=C/c3ccc(OC)c(OC)c3OC)[nH]c2n(CCC)c1=O [Compound 20, (E)-1,3-dipropyl-8-(2,3,4-trimethoxystyryl)xanthine] | > 300 mg/kg | inhibition in vivo at 10 mg/kg ([1]; Mus musculus, po, 1 h, rate of decrease in total score based on control group, read-out: Remission Rate (%)): 24%; Number of the Animals Showing Remission ([1]; of 5 mice, catalepsy score not more than 4 points): 3; Total Score ([1]; total catalepsy score of 5 mice (25 points at the full), 0.3% CMC control 25): 19 points
11 | CCCn1c(=O)c2c(nc(/C=C/c3ccc(OC)c4ccccc34)n2C)n(CCC)c1=O [Compound 62, (E)-8-[2-(4-methoxynaphthyl)vinyl]-7-methyl-1,3-dipropylxanthine] | > 100 mg/kg | 
12 | CCCn1c(=O)c2c(nc(/C=C/c3ccc(OC)c(OC)c3OC)n2C)n(CCC)c1=O [Compound 21, (E)-7-methyl-1,3-dipropyl-8-(2,3,4-trimethoxystyryl)xanthine] | > 300 mg/kg | 
13 | CCCn1c(=O)c2[nH]c(/C=C/c3ccc(OC)c4ccccc34)nc2n(CCC)c1=O [Compound 61, (E)-8-[2-(4-methoxynaphthyl)vinyl]-1,3-dipropylxanthine] | > 100 mg/kg | 
14 | CCCn1c(=O)c2[nH]c(/C=C/c3ccccc3F)nc2n(CCC)c1=O [Compound 42, (E)-8-(2-fluorostyryl)-1,3-dipropylxanthine] | > 100 mg/kg | 
15 | CCCn1c(=O)c2c(nc(/C=C/c3ccccc3Cl)n2C)n(CCC)c1=O [Compound 41, (E)-8-(2-chlorostyryl)-7-methyl-1,3-dipropylxanthine] | > 100 mg/kg | 
16 | CCCn1c(=O)c2[nH]c(/C=C/c3cc(OC)c(OCc4ccccc4)c(OC)c3)nc2n(CCC)c1=O [Compound 26, (E)-8-(4-benzyloxy-3,5-dimethoxystyryl)-1,3-dipropylxanthine] | > 100 mg/kg | 
17 | CCCn1c(=O)c2[nH]c(/C=C/c3ccc(OC)c(C)c3OC)nc2n(CCC)c1=O [Compound 14, (E)-8-(2,4-dimethoxy-3-methylstyryl)-1,3-dipropylxanthine] | > 100 mg/kg | 
18 | CCCn1c(=O)c2c(nc(/C=C/c3cc(C)c(OC)cc3C)n2C)n(CCC)c1=O [Compound 45, (E)-8-(4-methoxy-2,5-dimethylstyryl)-7-methyl-1,3-dipropylxanthine] | > 300 mg/kg | 
19 | CCCn1c(=O)c2c(nc(/C=C/c3cccc(F)c3)n2C)n(CCC)c1=O [Compound 37, (E)-8-(3-fluorostyryl)-7-methyl-1,3-dipropylxanthine] | > 100 mg/kg | 
20 | CCCn1c(=O)c2[nH]c(/C=C/c3ccc(OC)c(Br)c3)nc2n(CCC)c1=O [Compound 55, (E)-8-(3-bromo-4-methoxystyryl)-1,3-dipropylxanthine] | > 100 mg/kg | 

Row | SMILES | MLD (dd-strain male mice) | other results
21 | CCCn1c(=O)c2c(nc(/C=C/c3cc(Br)c(OC)c(OC)c3)n2C)n(CCC)c1=O [Compound 60, (E)-8-(3-bromo-4,5-dimethoxystyryl)-7-methyl-1,3-dipropylxanthine] | > 100 mg/kg | 
22 | CCCn1c(=O)c2c(nc(/C=C/c3ccc(OC)c(O)c3)n2C)n(CCC)c1=O [Compound 63, (E)-8-(3-hydroxy-4-methoxystyryl)-7-methyl-1,3-dipropylxanthine] | > 100 mg/kg | 
23 | CCCn1c(=O)c2[nH]c(/C=C/c3cccc(OC)c3OC)nc2n(CCC)c1=O [Compound 28, (E)-8-(2,3-dimethoxystyryl)-1,3-dipropylxanthine] | > 100 mg/kg | 
24 | CCCn1c(=O)c2[nH]c(/C=C/c3ccc(OC)c(C)c3C)nc2n(CCC)c1=O [Compound 12, (E)-8-(4-methoxy-2,3-dimethylstyryl)-1,3-dipropylxanthine] | > 300 mg/kg | 
25 | CCCn1c(=O)c2c(nc(/C=C/c3cc(OC)c(OC)cc3Br)n2C)n(CCC)c1=O [Compound 58, (E)-8-(2-bromo-4,5-dimethoxystyryl)-7-methyl-1,3-dipropylxanthine] | > 300 mg/kg | 
26 | CCCn1c(=O)c2c(nc(/C=C/c3ccccc3F)n2C)n(CCC)c1=O [Compound 43, (E)-8-(2-fluorostyryl)-7-methyl-1,3-dipropylxanthine] | > 100 mg/kg | 
27 | CCCn1c(=O)c2[nH]c(/C=C/c3cccc([N+](=O)[O-])c3)nc2n(CCC)c1=O [Compound 34, (E)-8-(3-nitrostyryl)-1,3-dipropylxanthine] | > 100 mg/kg | 
28 | CCCn1c(=O)c2c(nc(/C=C/c3cccc([N+](=O)[O-])c3)n2C)n(CCC)c1=O [Compound 35, (E)-7-methyl-8-(3-nitrostyryl)-1,3-dipropylxanthine] | > 100 mg/kg | 
29 | CCCn1c(=O)c2c(nc(/C=C/c3cccc(OC)c3OC)n2C)n(CCC)c1=O [Compound 29, (E)-8-(2,3-dimethoxystyryl)-7-methyl-1,3-dipropylxanthine] | > 300 mg/kg | 
30 | CCCn1c(=O)c2c(nc(/C=C/c3cc(OC)c(OCc4ccccc4)c(OC)c3)n2C)n(CCC)c1=O [Compound 27, (E)-8-(4-benzyloxy-3,5-dimethoxystyryl)-7-methyl-1,3-dipropylxanthine] | > 100 mg/kg | 
31 | CCCn1c(=O)c2c(nc(/C=C/c3cc(OC)cc(OC)c3)n2C)n(CCC)c1=O [Compound 33, (E)-8-(3,5-dimethoxystyryl)-7-methyl-1,3-dipropylxanthine] | > 100 mg/kg | 
32 | CCCOc1ccc(/C=C/c2nc3c([nH]2)c(=O)n(CCC)c(=O)n3CCC)cc1 [Compound 49, (E)-8-(4-propoxystyryl)-1,3-dipropylxanthine] | > 100 mg/kg | 
33 | CCCn1c(=O)c2nc(/C=C/c3cc(OC)c(OC)cc3OC)[nH]c2n(CCC)c1=O [Compound 22, (E)-1,3-dipropyl-8-(2,4,5-trimethoxystyryl)-xanthine] | > 300 mg/kg | 
34 | CCCCOc1ccc(/C=C/c2nc3c(c(=O)n(CCC)c(=O)n3CCC)n2C)cc1 [Compound 52, (E)-8-(4-butoxystyryl)-7-methyl-1,3-dipropylxanthine] | > 100 mg/kg | 
35 | CCCn1c(=O)c2[nH]c(/C=C/c3ccc(OCC)cc3)nc2n(CCC)c1=O [Compound 47, (E)-8-(4-ethoxystyryl)-1,3-dipropylxanthine] | > 100 mg/kg | 
36 | CCCn1c(=O)c2[nH]c(/C=C/c3ccc(C)c(C)c3)nc2n(CCC)c1=O [Compound 30, (E)-8-(3,4-dimethylstyryl)-1,3-dipropylxanthine] | > 100 mg/kg | 
37 | CCCn1c(=O)c2nc(/C=C/c3cccc(F)c3)[nH]c2n(CCC)c1=O [Compound 36, (E)-8-(3-fluorostyryl)-1,3-dipropylxanthine] | > 100 mg/kg | 
38 | CCCn1c(=O)c2c(nc(/C=C\c3ccc(OC)c(OC)c3)n2C)n(CCC)c1=O [Compound 46, (Z)-8-(3,4-dimethoxystyryl)-7-methyl-1,3-dipropylxanthine] | > 300 mg/kg | 
39 | CCCn1c(=O)c2[nH]c(/C=C/c3cc(OC)c(OC)cc3Br)nc2n(CCC)c1=O [Compound 57, (E)-8-(2-bromo-4,5-dimethoxystyryl)-1,3-dipropylxanthine] | > 300 mg/kg | 
